The text below walks through data of patent publication US20100273806A1, “TETRAHYDROCYCLOPENTA[B]INDOL-3-YL CARBOXYLIC ACID DERIVATIVES USEFUL IN THE TREATMENT OF AUTOIMMUNE AND INFLAMMATORY DISORDERS” (ARENA PHARMACEUTICALS, INC., priority 2007, published 2010).

The target in one assay is T1, S1P1 receptor (Homo sapiens, UniProt P21453).
T1 construct: expressed in transfected cells; host or cells: CHO-K1 (ATCC CCL-61), stably transfected
The experiment in a line: HTRF assay for direct cAMP measurement (S1P1 receptor agonists). Type of assay: cell-based. Conditions: recombinant CHO-K1 cells stably transfected with S1P1 receptor; decrease of cAMP concentration. An excerpt:
Compounds were screened for agonists of S1P1 receptor (e.g., human S1P1 receptor) using HTRF® assay for direct cAMP measurement (Gabriel et al, ASSAY and Drug Development Technologies, 1:291-303, 2003) and recombinant CHO-K1 cells stably transfected with S1P1 receptor. CHO-K1 cells were obtained from ATCC® (Manassas, Va.; Catalog #CCL-61). An agonist of S1P1 receptor was detected in HTRF® assay for direct cAMP measurement as a compound which decreased cAMP concentration. HTRF® assay also was used to determine EC50 values for S1P1 receptor agonists.
Principle of the assay: HTRF® assay kit was purchased from Cisbio-US, Inc. (Bedford, Mass.; Catalog #62AM4PEC). The HTRF® assay supported by the kit is a competitive immunoassay between endogenous cAMP produced by the CHO-K1 cells and tracer cAMP labeled with the dye d2. The tracer binding is visualized by a monoclonal anti-cAMP antibody labeled with Cryptate. The specific signal (i.e., fluorescence resonance energy transfer, FRET) is inversely proportional to the concentration of unlabeled cAMP in the standard or sample.
The fluorescence ratio of the samples (test compound or compound buffer) was calculated and used to deduce respective cAMP concentrations by reference to the cAMP standard curve.
Setup of the assay: HTRF® assay was carried out using a two-step protocol essentially according to the kit manufacturer's instructions, in 20 μL total volume per well in 384-well plate format (ProxiPlates; PerkinElmer, Fremont, Calif.; catalog #6008280). To each of the experimental wells was transferred 1500 recombinant CHO-K1 cells in 5 μL phosphate buffered saline containing calcium chloride and magnesium chloride (“PBS+”; Invitrogen, Carlsbad, Calif.; catalog #14040) supplemented with IBMX (250 μM) and rolipram (20 μM) (phosphodiesterase inhibitors; Sigma-Aldrich, St. Louis, Mo.; catalog #I5879 and catalog #R6520, respectively), followed by test compound in 5 μL compound buffer (PBS+ supplemented with […] (water-soluble forskolin derivative; SignaGen Laboratories, Gaithersburg, Md.; catalog #PKI-NKH477-010)) or 5 μL compound buffer. The plate was then incubated at room temperature for 1 hour. To each well was then added 5 μL cAMP-d2 conjugate in lysis buffer and 5 μL Cryptate conjugate in lysis buffer according to the kit manufacturer's instructions. The plate was then further incubated at room temperature for 1 hour, after which the assay plate was read.
Assay readout: HTRF® readout was accomplished using a PHERAstar (BMG LABTECH Inc., Durham, N.C.) or EnVision™ (PerkinElmer, Fremont Calif.) microplate reader.
On the technique in general: TR-FRET usually uses a lanthanide donor and a delayed reading to cut background.

The target in another assay is S1P3 receptor (Homo sapiens, UniProt Q99500). The experiment in a line: Cellular/functional Ca2+ assay for agonist activity on S1P3 receptor. The format is cell-based. Further details: a human neuroblastoma cell line which endogenously expresses S1P3 (predominantly); endogenous in cells. The following applies: human neuroblastoma cell line endogenously expressing S1P3; FIG. 1. An excerpt:
Of these, S1P3 and S1P2 receptors respond to agonist, such as S1P, with an intracellular calcium increase. […] Such an assay can be performed commercially, e.g. by Caliper LifeSciences (Hopkinton, Mass.).
Assay: The human neuroblastoma cells were washed and resuspended in physiological buffer. The cells were then loaded with dye that measures intracellular calcium. S1P was used as a reference agonist. Compound 52 was included in the assay as a test compound. After addition of S1P or Compound 52, fluorescence was measured at 485 nm excitation/525 nm emission every 2 s for at least 60 s. Calcium ionophore A23187 was then added as an internal positive control.

Another assay concerns Male BALB/c mice. The experiment in a line: Mouse peripheral lymphocyte lowering (PLL) assay. Type of assay: in vivo. Conditions: 1 mg/kg i.v. in 100% PEG400, 5 h post dose, compared with vehicle; *P<0.05; FIG. 2. The method, then:
Animals: Male BALB/c mice (6 to 7 weeks of age at start of study) (Charles River Laboratories, Wilmington, Mass.) were housed four per cage and maintained in a humidity- (40-60%) and temperature- (68-72° F.) controlled facility on a 12 h:12 h light/dark cycle (lights on at 6:30 am) with free access to food (Harlan Teklad, Orange, Calif., Rodent Diet 8604) and water. Mice were allowed one week of habituation to the animal facility before testing.
PLL Assay: Mice were administered via i.v. one of the following: saline, vehicle (100% PEG400) or 1 mg/kg Compound 52 in vehicle, in a total volume of 5 ml/kg. Peripheral blood samples were collected at 5 h post dose. The mice were anesthetized with isoflurane and bled retro-orbitally (300 μL) into 1.5 ml EDTA tubes. A complete cell count (CBC) (including lymphocyte count) was obtained using CELL-DYN® 3700 (Abbott Laboratories, Abbott Park, Ill.). Results are presented in FIG. 2, in which peripheral blood lymphocyte (PBL) count is shown for the 5 hour group.

pEC50: −log10 of the molar value. Entries after “also recorded” stand apart in the source; their conditions may differ.

T1 sequence (P21453 whole entry): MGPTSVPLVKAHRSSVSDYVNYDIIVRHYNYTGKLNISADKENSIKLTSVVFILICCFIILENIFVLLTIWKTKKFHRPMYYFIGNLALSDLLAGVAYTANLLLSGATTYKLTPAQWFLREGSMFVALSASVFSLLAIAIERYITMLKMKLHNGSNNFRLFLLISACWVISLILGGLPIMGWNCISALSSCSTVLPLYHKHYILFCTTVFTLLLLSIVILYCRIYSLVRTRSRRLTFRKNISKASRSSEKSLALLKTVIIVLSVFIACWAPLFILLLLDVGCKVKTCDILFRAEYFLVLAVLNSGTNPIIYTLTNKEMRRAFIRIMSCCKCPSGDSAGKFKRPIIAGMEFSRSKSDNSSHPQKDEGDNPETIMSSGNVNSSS
Chain of S1P3 receptor (Q99500 whole entry): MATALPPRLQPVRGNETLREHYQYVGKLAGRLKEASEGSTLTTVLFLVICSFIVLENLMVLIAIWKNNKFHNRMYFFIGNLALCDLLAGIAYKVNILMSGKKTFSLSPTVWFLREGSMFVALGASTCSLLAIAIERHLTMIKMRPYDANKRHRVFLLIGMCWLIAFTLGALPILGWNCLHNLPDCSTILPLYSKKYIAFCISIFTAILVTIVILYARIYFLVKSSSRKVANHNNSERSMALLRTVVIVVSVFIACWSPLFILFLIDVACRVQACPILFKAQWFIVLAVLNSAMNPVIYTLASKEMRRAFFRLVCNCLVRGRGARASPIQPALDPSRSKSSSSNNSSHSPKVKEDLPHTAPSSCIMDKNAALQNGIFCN

As usually defined, the pEC50 is the EC50 on a negative log10 scale, so that one unit is a factor of ten. As to `COc1ccc(-c2nc(-c3ccc4[nH]c5c(c4c3)CCC5CC(=O)O)no2)cc1C(F)(F)F` (stereo not shown) [Compound 42, 2-(7-(5-(4-Methoxy-3-(trifluoromethyl)phenyl)-1,2,4-oxadiazol-3-yl)-1,2,3,4-tetrahydrocyclopenta[b]indol-3-yl)acetic Acid], at S1P1 receptor, the pEC50 was 7.03.
On to `O=C(O)CC1CCc2c1[nH]c1ccc(-c3noc(-c4ccc(OCC(F)(F)F)nc4)n3)cc21` (stereo not shown) [Compound 47, 2-(7-(5-(6-(2,2,2-Trifluoroethoxy)pyridin-3-yl)-1,2,4-oxadiazol-3-yl)-1,2,3,4-tetrahydrocyclopenta[b]indol-3-yl)acetic Acid], for which the pEC50 at S1P1 receptor was 7.08.
Consider `N#Cc1cc(-c2nc(-c3ccc4[nH]c5c(c4c3)CCC5CC(=O)O)no2)ccc1OC1CCCC1` (single isomer, unassigned) [Compound 19, 2-(7-(5-(3-Cyano-4-(cyclopentyloxy)phenyl)-1,2,4-oxadiazol-3-yl)-1,2,3,4-tetrahydrocyclopenta[b]indol-3-yl)acetic Acid], for which the pEC50 at S1P1 receptor is 7.73.
Turning to `N#Cc1cc(OCCF)cc(-c2nc(-c3ccc4[nH]c5c(c4c3)CCC5CC(=O)O)no2)c1` (stereo not shown) [Compound 32, 2-(7-(5-(3-Cyano-5-(2-fluoroethoxy)phenyl)-1,2,4-oxadiazol-3-yl)-1,2,3,4-tetrahydrocyclopenta[b]indol-3-yl)acetic Acid], on S1P1 receptor, the pEC50 was 7.37.
Turning to `O=C(O)CC1CCc2c1[nH]c1ccc(-c3noc(-c4cc(C(F)(F)F)cc(C(F)(F)F)c4)n3)cc21` (stereo not shown) [Compound 52, 2-(7-(5-(3,5-Bis(trifluoromethyl)phenyl)-1,2,4-oxadiazol-3-yl)-1,2,3,4-tetrahydrocyclopenta[b]indol-3-yl)acetic Acid], the “agonist activity on S1P3 receptor (intracellular calcium)” value at S1P3 receptor is reported as “substantially little to no activity; also recorded: no or substantially no agonist activity”. For the same molecule, the pEC50 on S1P1 receptor is 7.12. Further, in the assay with Male BALB/c mice, the “peripheral blood lymphocyte (PBL) count / peripheral lymphocyte lowering” value is “exhibited activity for inducing peripheral lymphocyte lowering”.
For the molecule `NC(=O)c1cc(OC(F)(F)F)cc(-c2nc(-c3ccc4[nH]c5c(c4c3)CCC5CC(=O)O)no2)c1` (stereo not shown) [Compound 51, 2-(7-(5-(3-Carbamoyl-5-(trifluoromethoxy)phenyl)-1,2,4-oxadiazol-3-yl)-1,2,3,4-tetrahydrocyclopenta[b]indol-3-yl)acetic Acid], at S1P1 receptor, the negative-log EC50 (pEC50) is 6.64.
With `CNc1ccc2oc(C[C@H]3O[C@@]4(CC[C@H]3C)O[C@H]([C@H](C)C(=O)c3ccc[nH]3)[C@H](C)C[C@H]4C)nc2c1C(=O)O` [Compound A23187, reference compound], the “agonist activity on S1P3 receptor (intracellular calcium)” value at S1P3 receptor is on record as “pronounced agonist activity”.
In the case of `CCOc1ncc(-c2nc(-c3ccc4[nH]c5c(c4c3)CCC5CC(=O)O)no2)cc1C` (stereo not shown) [Compound 62, 2-(7-(5-(6-Ethoxy-5-methylpyridin-3-yl)-1,2,4-oxadiazol-3-yl)-1,2,3,4-tetrahydrocyclopenta[b]indol-3-yl)acetic Acid], the pEC50 on S1P1 receptor is 6.68.
